Columns and labels:
Type in all cases: cell-based
HEK293 cells [1] = experiment: Preliminary screening as DNA vectors, GFP transfection of HEK293 cells; settings: HEK293 cells; lipid/DOPE liposome with 75 ng plasmid DNA (psin-EGFP-IRES-Puro); number of cells expressing GFP divided by total number of nuclei (Hoechst)
Method in brief: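 Lipid + DOPE liposomes (NaOAc, pH 5.6) complexed w/ 75 ng psin-EGFP-IRES-Puro, 30 min RT; added to 3-5×10^4 HEK293/well, 37° C. Hoechst 0.2 μg/mL at 20-24 h, imaged after further 20-24 h. Efficiency = GFP+ cells / total nuclei.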

HEK293 cells [2] = experiment: Preliminary screening as mRNA vectors, EGFP mRNA transfection of HEK293 cells; settings: HEK293 cells, 96-well plates, EGFP mRNA 50 ng per well; percentage of GFP fluorescent cells relative to total number of cells (Hoechst)
Method in brief: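 Each well of HEK293 cells received 50 ng of EGFP mRNA. Efficiency was expressed as percent GFP-expressing cells over Hoechst-defined total cell number.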

Hela cells [3] = experiment: Transfection of Hela cell line, DNA vectors; settings: 75 ng plasmid DNA, GFP cells / total cells
Method: 1. The compound (0.01 mmol) prepared in Example 1 was dissolved in 1 mL of anhydrous ethanol. After ultrasonically dissolved, 10 μL of the resultant amino lipid solution in ethanol was taken and mixed with 5 μL of DOPE solution in ethanol (0.01 m), and then to the obtained mixture was added 35 μL of 0.2M sodium acetate buffer (pH 5.6), and 50 μL of liposome solution was prepared by vortex at a constant rotating speed for 30 s. 4 μL was taken from the 50 μL liposome solution and added to 46 μL of 0.02M sodium acetate buffer (pH 5.6), and the final liposome solution was formed by vortex at a constant rotating speed for 30 s. 5 μL was taken from the final liposome solution and mixed with 75 ng plasmid DNA (psin-EGFP-IRES-Puro, Clontech) dissolved in 5 μL of 0.02 M sodium acetate buffer, and was allowed to stay at room temperature for 30 min to form a lipid/DNA transfection complex.
2. 10 μL of the lipid/DNA transfection complex was incubated at room temperature for 30 min, followed by addition of 90 μL of fresh resuspended cells (3-5×10^4 cells) and mixing with a pipette. 100 μL of cells+lipid/DNA complex was transferred to separate wells of a 96-well culture plate immediately, and placed in an incubator containing 5% CO2 at 37° C.
3. Hoechst33258 (Invitrogen) was added at a final concentration of 0.2 μg/mL to the cells 20 to 24 hours after initial cell transfection, and cultured in darkness at 37° C. for 15 min. Afterwards, the cells were washed once with a PBS solution, and then added with medium for culture for 20 to 24 h.
4. The cells were placed in a high-throughput confocal microscope (Molecular Devices ImageXpress), and four visual fields of the image of the cells were captured for each well, and images at three laser wavelengths were captured for each sample: bright field images of cells (FIG. 2(a) and FIG. 2(b)), Hoechst-staining images showing total nuclei (FIG. 2(c) and FIG. 2(d)) and GFP images showing success in transfection with the plasmid DNA and the expression of GFP (FIG. 2(e) and FIG. 2(f)). MetaXpress software was used to separately count the cells in the Hoechst-staining images and GFP images, and then the number of cells expressing GFP was divided by the total number of nuclei to give the absolute cell transfection efficiency. The absolute transfection efficiency was calculated as follows: […]
(§1) Cell line: Hela cells (ATCC 35241)
(§2) Medium: DMEM supplemented with 10% fetal bovine serum (Invitrogen)
(§3) Screening: cell transfection on 96-well plates
(§4) Detection (readout): percentage of the number of GFP fluorescent cells relative to the total number of cells (the total number of cells was determined using nucleus dye Hoechst). Lipofectamine2000 (Invitrogen) was used as the positive control, according to the manufacturer's instructions.
Method: the experimental method was basically the same with Example 4.

Hela cells [4] = experiment: Transfection of Hela cell line, mRNA vectors; settings: 50 ng EGFP mRNA per well
Method: as §1, §2, §3
as §4, with “Hoechst). A commercially available liposome transfection reagent” for “Hoechst).”, “control group,” for “control,”
Method: the experimental method was basically the same with Example 4, and the mass of EGFP mRNA for transfection was 50 ng per well.

CCCCCCCCCCCCSc1nc(NCCN(C)C)nc(SCCCCCCCCC)n1 [Compound S9S12D1]
Absolute DNA transfection efficiency in HEK293 cells (HEK293 cells [1]): 14.6% | Absolute mRNA transfection efficiency in HEK293 cells (HEK293 cells [2]): 0.8% | Absolute DNA transfection efficiency in Hela cells (Hela cells [3]): 7.9% | Absolute mRNA transfection efficiency in Hela cells (Hela cells [4]): 7.9%

CCCCCCCCCCCCSc1nc(NCCN2CCOCC2)nc(SCCCCCCCCC)n1 [Compound S9S12D2]
Absolute DNA transfection efficiency in HEK293 cells (HEK293 cells [1]): 16.7% | Absolute mRNA transfection efficiency in HEK293 cells (HEK293 cells [2]): 0.0% | Absolute DNA transfection efficiency in Hela cells (Hela cells [3]): 8.5% | Absolute mRNA transfection efficiency in Hela cells (Hela cells [4]): 8.5%

CCCCCCCCCCCCSc1nc(NCCN2CCCCC2)nc(SCCCCCCCCC)n1 [Compound S9S12D4]
Absolute DNA transfection efficiency in HEK293 cells (HEK293 cells [1]): 0.0% | Absolute mRNA transfection efficiency in HEK293 cells (HEK293 cells [2]): 0.6% | Absolute DNA transfection efficiency in Hela cells (Hela cells [3]): 0.0% | Absolute mRNA transfection efficiency in Hela cells (Hela cells [4]): 0.0%

CCCCCCCCCCCCSc1nc(NCCN(CC)CC)nc(SCCCCCCCCC)n1 [Compound S9S12D7]
Absolute DNA transfection efficiency in HEK293 cells (HEK293 cells [1]): 5.3% | Absolute mRNA transfection efficiency in HEK293 cells (HEK293 cells [2]): 3.4% | Absolute DNA transfection efficiency in Hela cells (Hela cells [3]): 2.7% | Absolute mRNA transfection efficiency in Hela cells (Hela cells [4]): 2.7%

CCCCCCCCCCCCCCSc1nc(NCCN(C)C)nc(SCCCCCCCCC)n1 [Compound S9S14D1]
Absolute DNA transfection efficiency in HEK293 cells (HEK293 cells [1]): 2.1% | Absolute mRNA transfection efficiency in HEK293 cells (HEK293 cells [2]): 1.6% | Absolute DNA transfection efficiency in Hela cells (Hela cells [3]): 1.4% | Absolute mRNA transfection efficiency in Hela cells (Hela cells [4]): 1.4%

CCCCCCCCCCCCCCSc1nc(NCCN2CCOCC2)nc(SCCCCCCCCC)n1 [Compound S9S14D2]
Absolute DNA transfection efficiency in HEK293 cells (HEK293 cells [1]): 14.3% | Absolute mRNA transfection efficiency in HEK293 cells (HEK293 cells [2]): 0.3% | Absolute DNA transfection efficiency in Hela cells (Hela cells [3]): 7.3% | Absolute mRNA transfection efficiency in Hela cells (Hela cells [4]): 7.3%

CCCCCCCCCCCCCCSc1nc(NCCN2CCCCC2)nc(SCCCCCCCCC)n1 [Compound S9S14D4]
Absolute DNA transfection efficiency in HEK293 cells (HEK293 cells [1]): 7.2% | Absolute mRNA transfection efficiency in HEK293 cells (HEK293 cells [2]): 0.7% | Absolute DNA transfection efficiency in Hela cells (Hela cells [3]): 3.6% | Absolute mRNA transfection efficiency in Hela cells (Hela cells [4]): 3.6%

CCCCCCCCCCCCCCSc1nc(NCCN(CC)CC)nc(SCCCCCCCCC)n1 [Compound S9S14D7]
Absolute DNA transfection efficiency in HEK293 cells (HEK293 cells [1]): 12.5% | Absolute mRNA transfection efficiency in HEK293 cells (HEK293 cells [2]): 1.5% | Absolute DNA transfection efficiency in Hela cells (Hela cells [3]): 6.5% | Absolute mRNA transfection efficiency in Hela cells (Hela cells [4]): 6.2%

CCCCCCCCCCCSc1nc(NCCCCCCC)nc(NCCN(CC)CC)n1 [Compound S11N7D7]
Absolute DNA transfection efficiency in Hela cells (Hela cells [3]): 5.8% | Absolute mRNA transfection efficiency in Hela cells (Hela cells [4]): 5.8%

CCCCCCCCCCCSc1nc(NCCCCCCCC)nc(NCCN(C)C)n1 [Compound S11N8D1]
Absolute DNA transfection efficiency in Hela cells (Hela cells [3]): 9.9% | Absolute mRNA transfection efficiency in Hela cells (Hela cells [4]): 9.9%

CCCCCCCCCCCSc1nc(NCCCCCCCC)nc(NCCN2CCOCC2)n1 [Compound S11N8D2]
Absolute DNA transfection efficiency in Hela cells (Hela cells [3]): 9.3% | Absolute mRNA transfection efficiency in Hela cells (Hela cells [4]): 9.3%

CCCCCCCCCCCSc1nc(NCCCCCCCC)nc(NCCN2CCCCC2)n1 [Compound S11N8D4]
Absolute DNA transfection efficiency in Hela cells (Hela cells [3]): 2.9% | Absolute mRNA transfection efficiency in Hela cells (Hela cells [4]): 2.9%

CCCCCCCCCCCSc1nc(NCCCCCCCC)nc(NCCN(CC)CC)n1 [Compound S11N8D7]
Absolute DNA transfection efficiency in Hela cells (Hela cells [3]): 5.7% | Absolute mRNA transfection efficiency in Hela cells (Hela cells [4]): 5.7%

CCCCCCCCCCCSc1nc(NCCCCCCCCC)nc(NCCN(C)C)n1 [Compound S11N9D1]
Absolute DNA transfection efficiency in Hela cells (Hela cells [3]): 6.0% | Absolute mRNA transfection efficiency in Hela cells (Hela cells [4]): 6.0%

CCCCCCCCCCCSc1nc(NCCCCCCCCC)nc(NCCN2CCOCC2)n1 [Compound S11N9D2]
Absolute DNA transfection efficiency in Hela cells (Hela cells [3]): 6.8% | Absolute mRNA transfection efficiency in Hela cells (Hela cells [4]): 6.8%

CCCCCCCCCCCSc1nc(NCCCCCCCCC)nc(NCCN2CCCCC2)n1 [Compound S11N9D4]
Absolute DNA transfection efficiency in Hela cells (Hela cells [3]): 0.5% | Absolute mRNA transfection efficiency in Hela cells (Hela cells [4]): 0.5%

CCCCCCCCCCCSc1nc(NCCCCCCCCC)nc(NCCN(CC)CC)n1 [Compound S11N9D7]
Absolute DNA transfection efficiency in Hela cells (Hela cells [3]): 0.9% | Absolute mRNA transfection efficiency in Hela cells (Hela cells [4]): 0.9%

Reference: patent publication US20230123334A1, “AMINO LIPID COMPOUND, PREPARATION METHOD THEREFOR, AND APPLICATION THEREOF” (SHENZHEN SHENXIN BIOTECHNOLOGY CO., LTD., priority 2020, published 2023)
